Experimental findings from patent publication US6369088B2, “Substituted 3-phenyl-5-alkoxy-1,3,4-oxadiazol-2-ones, their preparation and their use as pharmaceuticals” (Aventis Pharma Deutschland GmbH, priority 2000, dated 2002) are described below.

Where a name gives a salt, the structure may show the parent alone.

System in one data set: not given
Experiment: not given
Settings: not given
For the compound `Cc1cc(-n2nc(OC(C)C)oc2=O)ccc1NC(=O)Nc1cccc(Cl)c1` [Example 77, 5-isopropoxy-3-(3-methyl-4-(3-chlorophenylaminocarbonylamino)phenyl)-3H-(1,3,4)oxadiazol-2-one], the melting point (in general, the temperature of the solid-liquid transition) worked out at 201 °C. For the compound `Cc1cc(-n2nc(OC(C)(C)C)oc2=O)ccc1NC(=O)OCc1ccccc1` [Example 78, 5-tert-Butoxy-3-(3-methyl-4-benzyloxycarbonylaminophenyl)-3H-(1,3,4)oxadiazol-2-one], the melting point stood at 113 °C. As to `COc1nn(-c2ccc(NC(=O)NC3Cc4ccccc4C3)c(C)c2)c(=O)o1` [Example 81, 5-Methoxy-3-(3-methyl-4-(indan-2-ylaminocarbonylamino)phenyl)-3H-(1,3,4)oxadiazol-2-one], the melting point worked out at 206 °C. The compound `COc1nn(-c2ccc(NC(=O)NCc3cccnc3)c(C)c2)c(=O)o1` [Example 82, 5-Methoxy-3-(3-methyl-4-(pyrid-3-ylmethylaminocarbonylamino)phenyl)-3H-(1,3, 4)oxadiazol-2-one] registered a melting point of 229 °C. `COc1nn(-c2ccc(NC(=O)OCc3cccnc3)c(C)c2)c(=O)o1` [Example 83, 5-Methoxy-3-(3-methyl-4-(pyrid-3-ylmethoxycarbonylamino)phenyl)-3H-(1,3,4)oxadiazol-2-one] registered a melting point of 232 °C. With `COc1nn(-c2ccc(NC(=O)c3ccc(C(F)(F)F)cc3)c(OCc3ccccc3)c2)c(=O)o1` [Example 86, 5-Methoxy-3-(3-benzyloxy-4-(4-trifluoromethylbenzoylamino)phenyl)-3H-(1,3,4)oxadiazol-2-one], the melting point amounted to 159 °C.

In turn, `COc1nn(-c2ccc(NC(=O)c3ccc(C(C)(C)C)cc3)c(F)c2)c(=O)o1` [Example 87, 5-Methoxy-3-(3-fluoro-4-(4-tert-butylbenzoylamino)phenyl)-3H-(1,3,4)oxadiazol-2-one] displayed a melting point of 144 °C.

As for `COc1nn(-c2ccc(NC(=O)OCC(F)(F)F)c(C)c2)c(=O)o1` [Example 88, 5-Methoxy-3-(3-methyl-4-(2,2,2-trifluoroethoxycarbonylamino)phenyl)-3H-(1,3, 4)oxadiazol-2-one], the melting point came to 141 °C. With `COc1nn(-c2ccc(NC(=O)N3CCCCC3)c(C)c2)c(=O)o1` [Example 89, 5-Methoxy-3-(3-methyl-4-piperidinocarbonylaminophenyl)-3H-(1,3,4)oxadiazol-2-one], the melting point was determined as 154 °C. On the same count and under the same terms, in the case of `COc1ccc2cc(C(=O)Nc3ccc(-n4nc(OC)oc4=O)cc3)oc2c1` [Example 90, 5-Methoxy-3-(4-(6-methoxybenzofuran-2-yl-carbonylamino)phenyl)-3H-(1,3,4)oxadiazol-2-one] it was 191 °C.

The target of the next data set is T1, hormone-sensitive lipase (HSL) (Rattus norvegicus, UniProt P15304).
T1 construct: Isolated rat fat cells were obtained from epididymal adipose tissue; from tissue; host or cells: rat epididymal adipose tissue (isolated fat cells, Wistar rats)
T1 sequence (P15304 1-768 isoform P15304-2): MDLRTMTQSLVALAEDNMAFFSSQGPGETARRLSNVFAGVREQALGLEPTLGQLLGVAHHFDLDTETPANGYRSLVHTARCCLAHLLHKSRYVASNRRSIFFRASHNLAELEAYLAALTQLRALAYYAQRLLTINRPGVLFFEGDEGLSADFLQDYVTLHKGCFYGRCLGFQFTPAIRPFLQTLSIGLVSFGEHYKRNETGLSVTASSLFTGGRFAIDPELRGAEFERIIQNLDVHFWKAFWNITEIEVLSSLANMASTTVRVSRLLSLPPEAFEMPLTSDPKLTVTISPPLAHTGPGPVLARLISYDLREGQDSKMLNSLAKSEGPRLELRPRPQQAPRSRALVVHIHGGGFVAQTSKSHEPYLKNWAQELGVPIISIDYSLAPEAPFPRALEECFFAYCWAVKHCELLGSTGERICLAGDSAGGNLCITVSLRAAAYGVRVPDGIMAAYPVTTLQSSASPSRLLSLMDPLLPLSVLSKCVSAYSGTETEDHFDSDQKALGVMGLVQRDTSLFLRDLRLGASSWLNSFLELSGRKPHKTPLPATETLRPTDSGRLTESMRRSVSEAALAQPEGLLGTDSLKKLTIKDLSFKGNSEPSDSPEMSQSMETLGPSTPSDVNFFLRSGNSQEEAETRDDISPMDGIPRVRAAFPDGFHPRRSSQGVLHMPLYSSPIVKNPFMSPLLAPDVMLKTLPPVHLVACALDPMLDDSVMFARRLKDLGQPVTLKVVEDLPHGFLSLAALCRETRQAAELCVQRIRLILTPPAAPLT
Nature of the data set: HSL enzyme assay: [3H]trioleoylglycerol hydrolysis by partially purified HSL. The format is biochemical.
Settings: not given
How it is done: The effect of the compounds of the invention on HSL was tested using the following enzyme assay system:
Preparation of Partially Purified HSL:
The fat cells from 10 rats were washed three times by flotation with 50 ml each time of homogenization buffer ([…] tris/HCl, pH 7.4, 0.25 M sucrose, 1 mM EDTA, 1 mM DTT, 10 μg/ml leupeptin, 10 μg/ml antipain, 20 μg/ml pepstatin) and finally taken up in 10 ml of homogenization buffer. The fat cells were homogenized in a Teflon-in-glass homogenizer (Braun-Melsungen) by 10 strokes at 1500 rpm and 15° C. The homogenate was centrifuged (Sorvall SM24 tubes, 5000 rpm, 10 min, 4° C.). The subnatant between the fatty layer at the top and the pellet was removed and the centrifugation was repeated. The subnatant resulting therefrom was recentrifuged (Sorvall SM24 tubes, 20000 rpm, 45 min, 4° C.). […] After the mixture had been incubated at 4° C. for 60 min (shaking at 15-min intervals), it was centrifuged (Sorvall SM24 tubes, 3000 rpm, 10 min, 4° C.). The supernatant was adjusted to pH 5.2 by adding glacial acetic acid and incubated at 4° C. for 30 min. The precipitates were collected by centrifugation (Sorvall SS34, 12000 rpm, 10 min, 4° C.) and suspended in 2.5 ml of 20 mM tris/HCl, pH 7.0,1 mM EDTA, 65 mM NaCl, 13% sucrose, 1 mM DTT, 10 μg/ml leupeptin/pepstatin/antipain. The suspension was dialyzed against 25 mM tris/HCl, pH 7.4, 50% glycerol, 1 mM DTT, 10 μg/ml leupeptin, pepstatin, antipain at 4° C. overnight and then loaded onto a hydroxy apatite column (0.1 g per 1 ml of suspension, equilibrated with 10 mM potassium phosphate, pH 7.0, 30% glycerol, 1 mM DTT). The column was washed with four volumes of equilibration buffer at a flow rate of 20 to 30 ml/h. The HSL was eluted with one volume of equilibration buffer containing 0.5 M potassium phosphate, and then dialyzed (see above) and concentrated 5- to 10-fold by ultrafiltration (Amicon Diaflo PM 10 filter) at 4° C. The partially purified HSL can be stored at −70° C. for 4 to 6 weeks.
To prepare the substrate, 25-50 μCi of [^3H]trioleoylglycerol (in toluene), 6.8 μmol of unlabeled trioleoylglycerol and 0.6 mg of phospholipids (phosphatidylcholine/phosphatidylinositol 3:1 w/v) were mixed, dried with N2 and then taken up in 2 ml of 0.1 M KPi (pH 7.0) by ultrasonic treatment (Branson 250, microtip, setting 1-2, 2×1 min at 1-min intervals). After addition of 1 ml of KPi and renewed ultrasonic treatment (4×30 sec on ice in 30-sec intervals), 1 ml of 20% BSA (in KPi) was added (final concentration of trioleoylglycerol 1.7 mM). For the reaction, 100 μl of substrate solution were pipetted into 100 μl of HSL solution (HSL prepared as above, diluted in 20 mM KPi, pH 7.0, 1 mM EDTA, 1 mM DTT, 0.02% BSA, 20 μg/ml pepstatin, 10 μg/ml leupeptin) and incubated at 37° C. for 30 min. […] After phase separation, one equivalent of the upper phase (1 ml) was removed and the radioactivity was determined by liquid scintillation measurement.
Substances were normally tested in four independent mixtures. The inhibition of the HSL enzymatic activity by a test substance was determined by comparison with an uninhibited control reaction. The IC50 was calculated via an inhibition plot with at least 10 concentrations of the test substance. The data was analyzed using the software package GRAPHIT, Elsevier-BIOSOFT.
On to `COc1nn(-c2ccc(NCc3ccc(C#N)cc3)cc2)c(=O)o1` [Example 130, 4-[[4-(5-Methoxy-2-oxo-[1,3,4]oxadiazol-3-yl)phenylamino]methyl]-benzonitrile tri-fluoroacetate], for which half-maximal inhibition (IC50) required 500 nM.

Staying with this data set, now noted: partially purified HSL from rat fat cells; [3H]trioleoylglycerol substrate; 37° C., 30 min; read-out: IC50.
As to “5-Methoxy-3-[3-[(3-trifluoromethylphenoxy)benzylamino]phenyl]-3H-[1,3,4]oxadiazol-2-one trifluoroacetate [Example 166]”, the IC50 (as a rule, the concentration that gives 50% inhibition) came to 200 nM. As to `COc1nn(-c2ccc(NC(=O)Cc3ccc(Cl)cc3)cc2)c(=O)o1` [Example 30, 5-Methoxy-3-(4-(4-chlorophenylacetylamino)phenyl)-3H-(1,3,4)oxadiazol-2-one], the half-inhibitory concentration (IC50) amounted to 1000 nM. On the same count and under the same terms, under `COc1nn(-c2ccc(NC(=O)OCc3ccccc3)c(C)c2)c(=O)o1` [Example 41, 5-Methoxy-3-(4-(benzyloxycarbonylamino)-3-methylphenyl)-3H-(1,3,4)oxadiazol-2-one] stands 100 nM; under `COc1nn(-c2ccc(-n3c(C)ccc3C)c(C)c2)c(=O)o1` [Example 54, 5-Methoxy-3-(4-(2,5-dimethylpyrrol-1-yl)-3-methylphenyl)-3H-(1,3,4)oxadiazol-2-one], 1000 nM. As for `COc1nn(-c2cccc(NCc3ccccc3)c2)c(=O)o1` [Example 58, 5-Methoxy-3-(3-benzylaminophenyl)-3H-(1,3,4)oxadiazol-2-one], the IC50 stood at 800 nM.

Regarding `COc1nn(-c2ccc(NC(=O)OCc3ccccc3)c(OCc3ccc(F)cc3)c2)c(=O)o1` [Example 60, 5-Methoxy-3-(3-(4-fluorobenzyloxy)-4-benzyloxycarbonylaminophenyl)-3H-(1,3,4)oxadiazol-2-one], the IC50 worked out at 200 nM. Turning to `COc1nn(-c2ccc(NC(=O)c3ccc(C(C)(C)C)cc3)cc2)c(=O)o1` [Example 69, 5-Methoxy-3-(4-(4-t-butylbenzoylamino)phenyl)-3H-(1,3,4)oxadiazol-2-one], the IC50 was found to be 30 nM. With `COc1nn(-c2ccc(NS(=O)(=O)c3ccc(OC)c(OC)c3)cc2)c(=O)o1` [Example 92, 3,4-Dimethoxy-N-[4-(5-methoxy-2-oxo-[1,3,4]oxadiazol-3-yl)-phenyl]benzenesulfon-amide], the concentration for half-maximal inhibition (IC50) came to 250 nM. As to `COc1nn(-c2ccc(NC(=O)c3ccccc3F)cc2)c(=O)o1` [Example 97, 2-Fluoro-N-[4-(5-methoxy-2-oxo-[1,3,4]oxadiazol-3-yl)phenyl]-benzamide], the IC50 was determined as 30 nM. As to `CCCCCCCCCCC(=O)Nc1ccc(-n2nc(OC)oc2=O)cc1` [Example 107, Undecanoic acid [4-(5-methoxy-2-oxo-[1,3,4]oxadiazol-3-yl)phenyl]amide], the IC50 stood at 120 nM. Take `COc1nn(-c2ccc(NC(=O)CCCC(=O)c3ccccc3)cc2)c(=O)o1` [Example 116, 5-Oxo-5-phenylpentanoic acid [4-(5-methoxy-2-oxo-[1,3,4]-oxadiazol-3-yl)phenyl]amide]: the IC50 was 100 nM. On to `COc1nn(-c2cccc(NC(=O)Nc3c(OC)cccc3OC)c2)c(=O)o1` [Example 128, 1-(2,6-Dimethoxyphenyl)-3-[3-(5-methoxy-2-oxo-[1,3,4]oxadiazol-3-yl)phenyl]urea], for which the IC50 came out at 600 nM. As to `COc1nn(-c2ccc(NCc3ccc(OCc4ccccc4)cc3)cc2)c(=O)o1` [Example 136, 3-[4-(4-Benzyloxybenzylamino)phenyl]-5-methoxy-3H-[1,3,4]oxadiazol-2-one trifluoroacetate], the half-maximal inhibitory concentration (IC50) was found to be 500 nM. Consider `COc1nn(-c2ccc(NCC3CCCCC3)cc2)c(=O)o1` [Example 139, 3-[4-(Cyclohexylmethylamino)phenyl]-5-methoxy-3H-[1,3,4]oxadiazol-2-one], for which the half-inhibitory concentration (IC50) stood at 400 nM.
